PubChem BioAssay (NCI)
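Step 1: Grow cells in 96-well plates. Step 2: Expose to compound for 48 hours at 5 concentrations. Step 3: Interpolate endpoints linearly; if unreached, use highest concentration. The concentration for 50% growth inhibition is given as GI50. Definition used: TGI = concentration required for complete inhibition of growth.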

Legend:
Test in all cases: DTP human tumour cell line panel, 48 h
OVCAR-8 ovarian = test system: OVCAR-8 ovarian
SNB-75 CNS = test system: SNB-75 CNS
SF-539 CNS = test system: SF-539 CNS
HCT-116 colon = test system: HCT-116 colon
HS 578T breast = test system: HS 578T breast
RPMI-8226 leukemia = test system: RPMI-8226 leukemia
SK-MEL-5 melanoma = test system: SK-MEL-5 melanoma
NCI-H522 lung = test system: NCI-H522 lung
RXF 393 renal = test system: RXF 393 renal
SR leukemia = test system: SR leukemia

SMILES	GI50 (OVCAR-8 ovarian) [µM]	TGI (OVCAR-8 ovarian) [µM]	GI50 (SNB-75 CNS) [µM]	TGI (SNB-75 CNS) [µM]	GI50 (SF-539 CNS) [µM]	TGI (SF-539 CNS) [µM]	GI50 (HCT-116 colon) [µM]	TGI (HCT-116 colon) [µM]	GI50 (HS 578T breast) [µM]	TGI (HS 578T breast) [µM]	GI50 (RPMI-8226 leukemia) [µM]	TGI (RPMI-8226 leukemia) [µM]	GI50 (SK-MEL-5 melanoma) [µM]	TGI (SK-MEL-5 melanoma) [µM]	GI50 (NCI-H522 lung) [µM]	TGI (NCI-H522 lung) [µM]	GI50 (RXF 393 renal) [µM]	TGI (RXF 393 renal) [µM]	TGI (SR leukemia) [µM]	GI50 (SR leukemia) [µM]
O=c1c2ccccc2c(Br)c(Br)c2ccccc12	13.9	34.2	19.2	56	13.3	37.2	4.92	29.3	11.8	42.1	2.51	5.84	13.6	31.6	1.76	3.47	3.32	12.7	–	–
Nc1nc2sc3ccccc3c(=O)n2n1	–	> 100	–	> 100	–	> 100	–	> 100	–	–	–	> 100	–	> 100	–	–	–	> 100	> 100	–
Cc1oc2c(C)c3oc(=O)cc(C)c3cc2c1CNC(=O)[C@@H]1OCCOCCOCCOCCOCCOC1C(=O)O (some centres not stated)	–	> 100	–	> 100	–	> 100	–	> 100	–	–	–	> 100	–	> 100	–	> 100	–	> 100	> 100	–
CN(C)CCN(C)CC1COC(C)(C)O1 (configuration not stated)	–	> 100	–	> 100	–	> 100	–	> 100	–	–	–	> 100	–	> 100	–	> 100	–	> 100	> 100	–
COc1cccc(C2C3=C(COC3=O)N(CCO)c3cc(OC)ccc32)c1 (configuration not stated)	0.206	> 100	0.0671	> 100	0.0878	–	0.107	–	0.188	> 80.8	0.271	> 100	0.0474	1.97	0.0307	1.44	–	–	> 100	0.0493
CCC1C(=O)OCc2c1cc1n(c2=O)Cc2cc3ccccc3nc2-1 (configuration not stated)	–	> 70.9	–	25.9	–	5.67	–	> 100	–	> 100	–	> 100	–	32.1	–	> 44.4	–	> 94.9	–	–
CSc1cccc(-n2c3nc(=O)n(C)c(=O)c-3nc3ccccc32)c1	–	57.6	–	28.6	–	12.4	–	–	–	–	–	26.2	–	3.02	–	28.3	–	–	–	–
COc1ccc(NC(=O)CC(=O)N2N=C(N(CCC#N)c3ccccc3Cl)CC2c2ccccc2)cc1 (configuration not stated)	–	> 100	–	> 100	–	> 100	–	> 100	–	–	–	> 100	–	> 100	–	> 100	–	> 100	> 100	–
COc1ccc2c(c1)C(=O)N1CCOC1C2C(=O)O (configuration not stated)	–	> 100	–	> 100	–	> 100	–	> 100	–	–	–	> 100	–	> 100	–	> 100	–	–	> 100	–
NC(=O)C#CC#CC#CCO	–	3.42	–	–	–	–	–	2.59	–	–	–	–	–	3.78	–	0.301	–	3.66	4.54	–
COC(=O)C1CCC(Nc2ccc(C)cc2C)=N1 (configuration not stated)	–	> 100	–	> 100	–	–	–	> 100	–	–	–	> 100	–	> 100	–	> 100	–	–	–	–
C=C(C)C1Cc2c(cc(OC)c3c(=O)c4cccc(O)c4oc23)O1 (configuration not stated)	–	59.5	–	29.9	–	32.3	–	39.4	–	49.3	–	–	–	30.1	–	33.8	–	35.9	> 100	–
CS(=O)(=O)OCC1OC(n2ccc(NC(=O)c3ccccc3)nc2=O)CC1OS(C)(=O)=O (configuration not stated)	–	> 100	–	> 100	–	> 100	–	> 100	–	> 100	–	> 100	–	> 100	–	> 100	–	–	> 100	–
N#CC(C(=O)/C(=N/NC(=O)c1ccccc1O)C(C#N)c1ccccc1)c1ccccc1 (configuration not stated)	–	> 100	–	> 100	–	> 100	–	> 100	–	–	–	> 100	–	–	–	–	–	> 100	–	–
CCCCCCCC(=O)NCC(O)CNC(=O)CCCCCCC	–	> 100	–	> 100	–	> 100	–	> 100	–	–	–	> 100	–	> 100	–	> 100	–	> 100	> 100	–
N#CC(/C(=N/NC(=O)C(=O)NN)C(=O)Nc1nc([N+](=O)[O-])cs1)c1ccc(Cl)cc1 (configuration not stated)	–	> 100	–	> 100	–	–	–	> 100	–	–	–	> 100	–	> 100	–	–	–	> 100	–	–
CC1OC(n2ccc(=O)[nH]c2=O)C=C(OC(=O)c2ccccc2)C1=O (configuration not stated)	–	> 100	–	63.1	–	> 100	–	–	–	–	–	> 100	–	> 100	–	–	–	> 100	–	–
[Cl][Sn]([Cl])([c]1ccccc1)[c]1ccccc1	14.4	27.8	10.8	22.9	16	29.4	–	–	–	–	2.71	18	12.2	26.9	–	–	2.79	–	25.7	3.93
Nc1ncnc2c1ncn2Cc1ccc(C23CC4CC(CC(C4)C2)C3)c(OCc2cc(F)c(F)cc2F)c1	9.66	> 100	> 100	> 100	50.2	> 100	3.08	13.2	52	> 100	–	–	0.955	> 100	7.86	> 100	2.02	8.36	–	–
CC(=O)CCc1ccc(OC2OC(COC(=O)c3cc(O)c(O)c(O)c3)C(O)C(O)C2OC(=O)/C=C/c2ccccc2)cc1 (configuration not stated)	21.2	55	–	–	26.4	44.8	15.1	29.9	33.8	> 100	23.7	85.3	19.1	36.1	18.1	48	19	47.2	–	–
CCOc1ccccc1NC(=O)c1cc2ccccc2cc1O	3.16	11.3	2.89	15.8	3.05	15.8	2.88	8.02	2.85	7.14	2.04	6.56	1.82	3.7	2.22	6.9	2.63	7.62	–	–
